Patent US4147861A, “1N-(α-Hydroxy-ω-aminoalkanoyl)- 6'N-methyl-3',4'-dideoxykanamycin B and the production thereof” (Zaidan Hojin Biseibutsu Kagaku Kenkyu Kai, priority 1977, dated 1979)
In brackets after ≈: the same amount, converted by molar mass. Like-named read-outs stand apart in the source and are kept apart here.

Tests used:
Format in all cases: cell-based
[1] = system: Staphylococcus aureus; assay: Minimum inhibitory concentration, serial dilution method on nutrient agar; conditions: 37° C., 18 hours, read-out: Minimum Inhibitory Concentrations
[2] = system: Staphylococcus aureus FDA 209P; assay: as above; conditions: FDA209P, 37° C., 18 hours, read-out: Minimum Inhibitory Concentrations
[3] = system: Staphylococcus aureus Terajima; assay: as above; conditions: 37° C., 18 hours, read-out: Minimum Inhibitory Concentrations
[4] = system: Sarcina lutea PCI 1001; assay: as above; conditions: Micrococcus luteus, read-out: Minimum Inhibitory Concentrations
[5] = system: Bacillus anthracis; assay: microbe, parasite or virus in culture; conditions: 18 h, read-out: Minimum Inhibitory Concentrations
[6] = system: Bacillus subtilis PCI 219; assay: Minimum inhibitory concentration, serial dilution method on nutrient agar; conditions: PCI219, 37° C., 18 hours, read-out: Minimum Inhibitory Concentrations
[7] = system: Bacillus subtilis NRRL B-558; assay: as above; conditions: NRRLB558, 37° C., 18 hours, read-out: Minimum Inhibitory Concentrations
[8] = system: Bacillus cereus ATCC 10702; assay: as above; conditions: read-out: Minimum Inhibitory Concentrations
[9] = system: Corynebacterium bovis 1810; assay: as above; conditions: Corynebacterium bovis 1810; 37° C., 18 hours; read-out: Minimum Inhibitory Concentrations
[10] = system: Mycobacterium smegmatis ATCC 607; assay: as above; conditions: Mycolicibacterium smegmatis, ATCC607, 37° C., 18 hours, read-out: Minimum Inhibitory Concentrations
[11] = system: Shigella dysenteriae JS 11910; assay: as above; conditions: JS11910, 18 h, read-out: Minimum Inhibitory Concentrations
[12] = system: Salmonella typhosa T-63; assay: as above; conditions: Salmonella enterica, 18 h, read-out: Minimum Inhibitory Concentrations
[13] = system: Salmonella enteritidis 1891; assay: as above; conditions: Salmonella enterica; Salmonella enteritidis 1891; 37° C., 18 hours; read-out: Minimum Inhibitory Concentrations
[14] = system: Proteus vulgaris OX 19; assay: as above; conditions: OX19; Proteus vulgaris OX 19; 37° C., 18 hours; read-out: Minimum Inhibitory Concentrations
[15] = system: Klebsiella pneumoniae PCT 602; assay: as above; conditions: PCT602; Klebsiella pneumoniae PCT 602; 37° C., 18 hours; read-out: Minimum Inhibitory Concentrations
[16] = system: Escherichia coli NIHJ; assay: as above; conditions: read-out: Minimum Inhibitory Concentrations
[17] = system: Escherichia coli K-12; assay: as above; conditions: K12; Escherichia coli K-12; 37° C., 18 hours; read-out: Minimum Inhibitory Concentrations
[18] = system: Escherichia coli K-12 R5; assay: as above; conditions: K12R5, 18 h, read-out: Minimum Inhibitory Concentrations
[19] = system: Escherichia coli K-12 ML 1629; assay: as above; conditions: read-out: Minimum Inhibitory Concentrations
[20] = system: Escherichia coli K-12 ML 1410; assay: as above; conditions: read-out: Minimum Inhibitory Concentrations
[21] = system: Escherichia coli K-12 ML 1410 R81; assay: as above; conditions: 18 h, read-out: Minimum Inhibitory Concentrations
[22] = system: Escherichia coli LA290 R55; assay: as above; conditions: LA290R55, 18 h, read-out: Minimum Inhibitory Concentrations
[23] = system: Escherichia coli LA290 R56; assay: as above; conditions: LA290R56, 18 h, read-out: Minimum Inhibitory Concentrations
[24] = system: Escherichia coli LA290 R64; assay: as above; conditions: LA290R64, 18 h, read-out: Minimum Inhibitory Concentrations
[25] = system: Escherichia coli W677; assay: as above; conditions: Escherichia coli W677; 37° C., 18 hours; read-out: Minimum Inhibitory Concentrations
[26] = system: Escherichia coli JR66/W677; assay: as above; conditions: read-out: Minimum Inhibitory Concentrations
[27] = system: Escherichia coli K-12 ML 1630; assay: as above; conditions: K12ML1630, 37° C., 18 hours, read-out: Minimum Inhibitory Concentrations
Description: (§1) The minimum inhibitory concentrations (mcg./ml.) of 1N-(DL-isoseryl)-6'N-methyl-3',4'-dideoxykanamycin B (abbreviated as DL-IS-MDKB); 1N-(L-isoseryl)-6'N-methyl-3',4'-dideoxykanamycin B (abbreviated as L-IS-MDKB); 1N-(L-4-amino-[…])-6'N-methyl-3',4'-dideoxykanamycin B (abbreviated as AHB-MDKB); and 1N-(L-5-amino-2-hydroxyvaleryl)-6'N-methyl-3',4'-dideoxykanamycin B (abbreviated as AHV-MDBK) against various organisms were determined according to serial dilution method using nutrient agar medium at 37° C., the readings being made after 18 hours incubation. For the comparison purpose, the minimum inhibitory concentrations (mcg./ml.) of 1 N-(L-4-amino-2-hydroxybutyryl)-kanamycin A (abbreviated as AHB-KMA) and 1N-([…])-kanamycin B (abbreviated as AHB-KMB) which are known from U.S. Pat. No. 3,781,268 were also determined by the same manner as stated above.

[28] = system: Klebsiella pneumoniae 22 No. 3038; assay: as above; conditions: 37° C., 18 hours, read-out: Minimum Inhibitory Concentrations
Description: as §1

[29] = system: Pseudomonas aeruginosa A3; assay: as above; conditions: 37° C., 18 hours, read-out: Minimum Inhibitory Concentrations
Description: as §1

[30] = system: Shigella flexneri 4b JS 11811; assay: as above; conditions: 4BJS11811, 37° C., 18 hours, read-out: Minimum Inhibitory Concentrations
Description: as §1

[31] = system: Shigella sonnei JS 11746; assay: as above; conditions: JS11746, 37° C., 18 hours, read-out: Minimum Inhibitory Concentrations
Description: as §1

[32] = system: Pseudomonas aeruginosa No. 12; assay: as above; conditions: Pseudomonas aeruginosa No. 12; 37° C., 18 hours; read-out: Minimum Inhibitory Concentrations
[33] = system: Pseudomonas aeruginosa TI-13; assay: as above; conditions: read-out: Minimum Inhibitory Concentrations
[34] = system: Pseudomonas aeruginosa GN315; assay: as above; conditions: Pseudomonas aeruginosa GN315; 37° C., 18 hours; read-out: Minimum Inhibitory Concentrations
[35] = system: Pseudomonas aeruginosa 99; assay: as above; conditions: 37° C., 18 hours, read-out: Minimum Inhibitory Concentrations

SMILES	MIC [1] [µg/mL]	MIC [2] [µg/mL]	MIC [3] [µg/mL]	MIC [5] [µg/mL]	MIC [6] [µg/mL]	MIC [7] [µg/mL]	MIC [9] [µg/mL]	MIC [10] [µg/mL]	MIC [11] [µg/mL]	MIC [12] [µg/mL]	MIC [13] [µg/mL]	MIC [14] [µg/mL]	MIC [15] [µg/mL]	MIC [17] [µg/mL]	MIC [18] [µg/mL]	MIC [21] [µg/mL]	MIC [22] [µg/mL]	MIC [23] [µg/mL]	MIC [24] [µg/mL]	MIC [25] [µg/mL]	other results
CNC[C@@H]1CC[C@@H](N)[C@@H](O[C@H]2[C@H](O)[C@@H](O[C@H]3O[C@H](CO)[C@@H](O)[C@H](N)[C@H]3O)[C@H](NC(=O)[C@@H](O)CCCN)C[C@@H]2N)O1 [AHV-MDKB, 1N-(L-5-amino-2-hydroxyvaleryl)-6'N-methyl-3',4'-dideoxykanamycin B]	< 0.2	0.39 (≈ 0.672 µM)	< 0.2	< 0.2	< 0.2	< 0.2	6.25 (≈ 10.8 µM)	0.78 (≈ 1.34 µM)	3.13 (≈ 5.39 µM)	0.78 (≈ 1.34 µM)	0.78 (≈ 1.34 µM)	0.78 (≈ 1.34 µM)	0.78 (≈ 1.34 µM)	0.78 (≈ 1.34 µM)	1.56 (≈ 2.69 µM)	1.56 (≈ 2.69 µM)	0.78 (≈ 1.34 µM)	0.39 (≈ 0.672 µM)	0.39 (≈ 0.672 µM)	0.78 (≈ 1.34 µM)	MIC ([4]; PCI1001, Sarcina lutea PCI 1001, 37° C., 18 hours): 12.5 µg/mL (≈ 21.5 µM); MIC ([8]; ATCC10702, Bacillus cereus ATCC 10702, 37° C., 18 hours): 1.56 µg/mL (≈ 2.69 µM); MIC ([16]; Escherichia coli NIHJ, 37° C., 18 hours): 0.78 µg/mL (≈ 1.34 µM); MIC ([19]; K12ML1629, Escherichia coli K-12 ML 1629, 37° C., 18 hours): 0.78 µg/mL (≈ 1.34 µM); MIC ([20]; K12ML1410, Escherichia coli K-12 ML 1410, 37° C., 18 hours): 1.56 µg/mL (≈ 2.69 µM); MIC ([26]; Escherichia coli JR66/W677, 37° C., 18 hours): 1.56 µg/mL (≈ 2.69 µM); MIC [27]: 1.56 µg/mL (≈ 2.69 µM); MIC [28]: 3.13 µg/mL (≈ 5.39 µM); MIC [29]: 3.13 µg/mL (≈ 5.39 µM); MIC [30]: 3.13 µg/mL (≈ 5.39 µM); MIC [31]: 3.13 µg/mL (≈ 5.39 µM); MIC [32]: 25 µg/mL (≈ 43.1 µM); MIC ([33]; TI13, Pseudomonas aeruginosa TI-13, 37° C., 18 hours): 6.25 µg/mL (≈ 10.8 µM); MIC [34]: 12.5 µg/mL (≈ 21.5 µM); MIC [35]: 25 µg/mL (≈ 43.1 µM)
CNC[C@@H]1CC[C@@H](N)[C@@H](O[C@H]2[C@H](O)[C@@H](O[C@H]3O[C@H](CO)[C@@H](O)[C@H](N)[C@H]3O)[C@H](NC(=O)[C@@H](O)CN)C[C@@H]2N)O1 [L-IS-MDKB, 1N-(L-isoseryl)-6'N-methyl-3',4'-dideoxykanamycin B]	< 0.2	< 0.2	< 0.2	< 0.2	< 0.2	< 0.2	0.78 (≈ 1.41 µM)	0.39 (≈ 0.706 µM)	3.13 (≈ 5.66 µM)	0.39 (≈ 0.706 µM)	0.78 (≈ 1.41 µM)	0.78 (≈ 1.41 µM)	0.78 (≈ 1.41 µM)	0.78 (≈ 1.41 µM)	1.56 (≈ 2.82 µM)	1.56 (≈ 2.82 µM)	1.56 (≈ 2.82 µM)	0.78 (≈ 1.41 µM)	0.39 (≈ 0.706 µM)	0.78 (≈ 1.41 µM)	MIC ([4]; PCI1001, 18 h): 3.13 µg/mL (≈ 5.66 µM); MIC ([8]; Bacillus cereus, ATCC10702, 18 h): 1.56 µg/mL (≈ 2.82 µM); MIC ([16]; Escherichia coli, 18 h): 1.56 µg/mL (≈ 2.82 µM); MIC ([19]; Escherichia coli, K12ML1629, 18 h): 1.56 µg/mL (≈ 2.82 µM); MIC ([20]; Escherichia coli, K12ML1410, 18 h): 1.56 µg/mL (≈ 2.82 µM); MIC ([26]; Escherichia coli, JR66/W677, 18 h): 1.56 µg/mL (≈ 2.82 µM); MIC [27]: 1.56 µg/mL (≈ 2.82 µM); MIC [28]: 1.56 µg/mL (≈ 2.82 µM); MIC [29]: 3.13 µg/mL (≈ 5.66 µM); MIC [30]: 1.56 µg/mL (≈ 2.82 µM); MIC [31]: 3.13 µg/mL (≈ 5.66 µM); MIC [32]: 25 µg/mL (≈ 45.2 µM); MIC ([33]; Pseudomonas aeruginosa, TI13, 18 h): 6.25 µg/mL (≈ 11.3 µM); MIC [34]: 25 µg/mL (≈ 45.2 µM); MIC [35]: 25 µg/mL (≈ 45.2 µM)
